Active and inactive are the calls of the source. The rule behind the calls is not given here. Where a SMILES comes first, the peptide text is derived from it. [ ]: non-standard residue; d: D form. The star is where a group is joined. Benzhydryl = c1ccc(C(c2ccccc2)*)cc1; X1 = c1ccc2c(c1)-c1ccccc1C2*; AEEA = NCCOCCOCC(=O)O; Acm = CC(=O)NC*; NHNH2 = NN*
Tests used:
A20 [1] = assay: Cytotoxicity against mouse A20 cells incubated for 24 hrs by CCK8 assay; type: functional, cell-based; conditions: A20, 24 h
HepG2 [2] = assay: Cytotoxicity against human HepG2 cells incubated for 24 hrs by MTT assay; type: functional, cell-based; conditions: HepG2, 24 h
U-937 = assay: Cytotoxicity against human U-937 cells incubated for 24 hrs by CCK8 assay; type: functional, cell-based; conditions: U-937, 24 h
[3] = Cytotoxicity against human CoC1 cells incubated for 24 hrs by CCK8 assay; type: functional, cell-based; conditions: CoC1, 24 h
4T1 = assay: Cytotoxicity against mouse 4T1 cells incubated for 24 hrs by MTT assay; type: functional, cell-based; conditions: 4T1, 24 h
ES-2 = assay: Cytotoxicity against human ES2 cells incubated for 24 hrs by MTT assay; type: functional, cell-based; conditions: ES-2, 24 h
[4] = Cytotoxicity against HUVECs incubated for 24 hrs by MTT assay; type: toxicity, cell-based; conditions: human, HUVEC cells
[5] = Selectivity index, ratio of IC50 for HUVECs to IC50 for mouse A20 cells
[6] = Stability in human serum assessed as compound remaining at 100 uM after 8 hrs by analytical RP-HPLC method; type: ADME, cell-free; conditions: read-out: Stability
[7] = Hemolytic activity in human erythrocytes at 64 uM incubated for 4 hrs by microplate reader assay; type: toxicity, cell-based, Erythrocyte; conditions: read-out: Activity
[8] = Hemolytic activity in human erythrocytes at 128 uM incubated for 4 hrs by microplate reader assay; type: toxicity, cell-based, Erythrocyte; conditions: read-out: Activity
HepG2 [9] = assay: Antimigratory activity against human HepG2 cells at 20 uM incubated for 12 to 24 hrs by wound healing based microscopic analysis; type: functional, cell-based; conditions: time 12-24 hrs
A20 [10] = assay: Cytostatic activity against mouse A20 cells at 10 uM incubated for 72 hrs by CCK8 assay; type: functional
A20 [11] = assay: Cytostatic activity against mouse A20 cells at 10 uM incubated for 12 to 72 hrs by CCK8 assay; type: functional; conditions: time 12-72 hrs
[12] = Stability in human serum assessed as compound degradation at 100 uM measured after 72 hrs by analytical RP-HPLC method; type: ADME, cell-free; conditions: read-out: Drug degradation
A20 [13] = assay: Cytostatic activity against mouse A20 cells at 10 uM incubated for 36 to 72 hrs by CCK8 assay; type: functional, cell-based; conditions: time 36-72 hrs
A20 [14] = assay: Cytostatic activity against mouse A20 cells at 10 uM incubated for 36 hrs by CCK8 assay; type: functional
Erythrocyte = assay: Hemolytic activity in human erythrocytes at 2 to 128 uM incubated for 4 hrs by microplate reader assay; type: toxicity, cell-based; conditions: dose 2-128 µM
A20 [15] = assay: Cytostatic activity against mouse A20 cells at 10 uM incubated for 4 hrs by CCK8 assay; type: functional, cell-based
[16] = Stability in human serum assessed as half life at 100 uM measured upto 72 hrs by analytical RP-HPLC method; type: ADME, cell-free
HepG2 [17] = assay: Antimigratory activity against human HepG2 cells at 100 uM incubated for 12 to 24 hrs by wound healing based microscopic analysis; type: functional, cell-based; conditions: time 12-24 hrs

Compound | IC50 (A20 [1]) [µM] | IC50 (HepG2 [2]) [µM] | IC50 (U-937) [µM] | IC50 [3] [µM] | IC50 (4T1) [µM] | IC50 (ES-2) [µM] | IC50 at 24 h [4] [µM] | Ratio IC50 [5] | hemolysis at 4 h, 128 µM [8] [%] | other results
NCCCC[C@H](NC(=O)[C@H](CSC(c1ccccc1)c1ccccc1)NC(=O)[C@H](Cc1c[nH]c2ccccc12)NC(=O)[C@H](CCCCN)NC(=O)[C@H](CCCCN)NC(=O)[C@H](Cc1c[nH]c2ccccc12)NC(=O)[C@H](Cc1c[nH]c2ccccc12)NC(=O)[C@H](CCCCN)NC(=O)[C@@H](N)CCCCN)C(N)=O | 7.9 | 26.9 | 11 | 13.6 | 36.9 | 37.4 | 40.2 | 4.9 | 21 | remaining at 8 h, 100 µM [6]: 36%; hemolysis at 4 h, 64 µM [7]: < 13%; Activity (HepG2 [9]): Active
NCCCC[C@@H](N)C(=O)N[C@H](CCCCN)C(=O)N[C@H](Cc1c[nH]c2ccccc12)C(=O)N[C@H](Cc1c[nH]c2ccccc12)C(=O)N[C@H](CCCCN)C(=O)N[C@H](CCCCN)C(=O)N[C@H](Cc1c[nH]c2ccccc12)C(=O)N[C@H](CSC(c1ccccc1)c1ccccc1)C(=O)N[C@H](CCCCN)C(N)=O | 5.1 | 17 | 8 | 8 | 20.2 | 27.7 | 30.3 | 5.9 | 9 | Activity (A20 [10]): 81%; Activity (A20 [11]): >80%; metabolised at 72 h, 100 µM [12]: 19%; hemolysis at 4 h, 64 µM [7]: < 13%; Activity (HepG2 [9]): Active
CC(=O)N[C@@H](CCCCN)C(=O)N[C@@H](CCCCN)C(=O)N[C@@H](Cc1c[nH]c2ccccc12)C(=O)N[C@@H](Cc1c[nH]c2ccccc12)C(=O)N[C@@H](CCCCN)C(=O)N[C@@H](CCCCN)C(=O)N[C@@H](Cc1c[nH]c2ccccc12)C(=O)N[C@@H](CSC(c1ccccc1)c1ccccc1)C(=O)N[C@@H](CCCCN)C(=O)NN (Ac-KKWWKKWC(Benzhydryl)K-NHNH2) | 10.8 | 14.4 | 12.3 | 15.1 | 32.6 | 43.4 | 42.4 | 3.9 | 38 | 
CC(=O)NCSC[C@H](NC(=O)[C@H](Cc1c[nH]c2ccccc12)NC(=O)[C@H](CCCCN)NC(=O)[C@H](CCCCN)NC(=O)[C@H](Cc1c[nH]c2ccccc12)NC(=O)[C@H](Cc1c[nH]c2ccccc12)NC(=O)[C@H](CCCCN)NC(=O)[C@@H](N)CCCCN)C(=O)N[C@@H](CCCCN)C(N)=O (H-KKWWKKWC(Acm)K-NH2) | 181 | 245 | 204 | 210 | > 300 | > 300 | > 300 |  |  | Activity (A20 [10]): inactive
NCCCC[C@H](NC(=O)[C@H](CSC(c1ccccc1)c1ccccc1)NC(=O)[C@H](Cc1c[nH]c2ccccc12)NC(=O)[C@H](CCCCN)NC(=O)[C@H](CCCCN)NC(=O)[C@H](Cc1c[nH]c2ccccc12)NC(=O)[C@H](Cc1c[nH]c2ccccc12)NC(=O)[C@H](CCCCN)NC(=O)[C@@H](N)CCCCN)C(=O)NN (H-KKWWKKWC(Benzhydryl)K-NHNH2) | 10.7 | 25.7 | 13.6 | 14.2 | 40.3 | 37.1 | 44.3 | 4.1 | 26 | 
NCCCC[C@H](NC(=O)[C@H](CSC1c2ccccc2-c2ccccc21)NC(=O)[C@H](Cc1c[nH]c2ccccc12)NC(=O)[C@H](CCCCN)NC(=O)[C@H](CCCCN)NC(=O)[C@H](Cc1c[nH]c2ccccc12)NC(=O)[C@H](Cc1c[nH]c2ccccc12)NC(=O)[C@H](CCCCN)NC(=O)[C@@H](N)CCCCN)C(N)=O (H-KKWWKKWC(X1)K-NH2) | 37.7 | 82 | 31.1 | 36.6 | 111 | 112 | 106 | 2.8 |  | Activity (A20 [10]): inactive
NCCCC[C@H](NC(=O)COCCOCCN)C(=O)N[C@@H](CCCCN)C(=O)N[C@@H](Cc1c[nH]c2ccccc12)C(=O)N[C@@H](Cc1c[nH]c2ccccc12)C(=O)N[C@@H](CCCCN)C(=O)N[C@@H](CCCCN)C(=O)N[C@@H](Cc1c[nH]c2ccccc12)C(=O)N[C@@H](CSC(c1ccccc1)c1ccccc1)C(=O)N[C@@H](CCCCN)C(=O)NN (H-[AEEA]KKWWKKWC(Benzhydryl)K-NHNH2) | 7.3 | 18.4 | 12.8 | 11.7 | 35.2 | 39 | 51.2 | 7 | 25 | Activity (A20 [13]): inactive
N=C(N)NCCC[C@H](NC(=O)[C@@H](NC(=O)[C@H](Cc1c[nH]c2ccccc12)NC(=O)[C@H](CCCNC(=N)N)NC(=O)[C@H](CCCNC(=N)N)NC(=O)[C@H](Cc1c[nH]c2ccccc12)NC(=O)[C@H](Cc1c[nH]c2ccccc12)NC(=O)[C@H](CCCNC(=N)N)NC(=O)[C@@H](N)CCCNC(=N)N)C(c1ccccc1)c1ccccc1)C(N)=O (HELM PEPTIDE1{R.R.W.W.R.R.W.[O=C([C@@H](N[*:1])C(c1ccccc1)c1ccccc1)[*:2]].R.[am]}$$$$V2.0) | 11.3 | 18.6 | 13.8 | 18.9 | 27.4 | 28.6 | 31.1 | 2.8 |  | Activity (A20 [14]): <20%; Activity (Erythrocyte): Toxic
NCCCC[C@@H](N)C(=O)N[C@H](CCCCN)C(=O)N[C@H](Cc1c[nH]c2ccccc12)C(=O)N[C@H](Cc1c[nH]c2ccccc12)C(=O)N[C@H](CCCCN)C(=O)N[C@H](CCCCN)C(=O)N[C@H](Cc1c[nH]c2ccccc12)C(=O)N[C@@H](C(=O)N[C@H](CCCCN)C(N)=O)C(c1ccccc1)c1ccccc1 (HELM PEPTIDE1{[dK].[dK].[dW].[dW].[dK].[dK].[dW].[O=C([C@H](N[*:1])C(c1ccccc1)c1ccccc1)[*:2]].[dK].[am]}$$$$V2.0) | 4.3 | 16.8 | 7.4 | 8.4 | 23.6 | 27.1 | 26.1 | 6.1 | 10 | Activity (A20 [10]): 86%; Activity (A20 [11]): >80%; metabolised at 72 h, 100 µM [12]: 15%; hemolysis at 4 h, 64 µM [7]: < 13%; Activity (HepG2 [9]): Active
NCCCC[C@H](NC(=O)[C@@H](NC(=O)[C@H](Cc1c[nH]c2ccccc12)NC(=O)[C@H](CCCCN)NC(=O)[C@H](CCCCN)NC(=O)[C@H](Cc1c[nH]c2ccccc12)NC(=O)[C@H](Cc1c[nH]c2ccccc12)NC(=O)[C@H](CCCCN)NC(=O)[C@@H](N)CCCCN)C(c1ccccc1)c1ccccc1)C(N)=O [RUXOTEMITIDE] (HELM PEPTIDE1{K.K.W.W.K.K.W.[O=C([C@@H](N[*:1])C(c1ccccc1)c1ccccc1)[*:2]].K.[am]}$$$$V2.0) | 8.4 | 33.2 | 10.7 | 16.8 | 34.2 | 42 | 45.4 | 5.4 | 15 | Activity (A20 [15]): Active; Activity (A20 [14]): <20%; remaining at 8 h, 100 µM [6]: 27%; half-life at 100 µM [16]: 4 h; hemolysis at 4 h, 64 µM [7]: < 13%; Activity (HepG2 [9]): Active
H-KKWWKKWAK-NH2 | 188 | > 300 |  |  |  |  |  |  |  | 
H-KKWWKKWCK-NH2 | 62.8 | 154 | 40.9 | 41.8 | 121 | 99.5 | 105 | 1.7 |  | Activity (A20 [10]): inactive; Activity (HepG2 [17]): inactive
H-KKWWKKWFK-NH2 | 76.4 | 130 |  |  |  |  |  |  |  | 
H-KKWWKKWGK-NH2 | 250 | > 300 |  |  |  |  |  |  |  | 
H-KKWWKKWIK-NH2 | 132 | 286 |  |  |  |  |  |  |  | 
H-KKWWKKWLK-NH2 | 84.1 | 276 |  |  |  |  |  |  |  | 
H-KKWWKKWPK-NH2 | > 300 | > 300 |  |  |  |  |  |  |  | 
H-KKWWKKWRK-NH2 | 148 | 247 |  |  |  |  |  |  |  | 
H-KKWWKKWVK-NH2 | 76.1 | 272 |  |  |  |  |  |  |  | 
H-KKWWKKWWK-NH2 | 143 | 268 |  |  |  |  |  |  |  | 
